According to PMC11440583 (2024):

Key:
[1] = test system: VEGF (DNA, G4) GGGAGGGTTGGGGTGGG; test: CD (or UV) thermal melting; details: 5 mM KCl; 10 mM Tris pH 7.2; 8 μM compound, 2 μM DNA
[2] = test system: c-MYC Pu24T (c-MYC Pu24-T; c-MYC Pu24) (DNA, G4) TGAGGGTGGTGAGGGTGGGGAAGG; test: CD (or UV) thermal melting; details: 5 mM KCl; 10 mM Tris pH 7.2; 8 μM compound, 2 μM DNA
[3] = test system: Bom17 (DNA, G4) GGTTAGGTTAGGTTAGG; test: CD (or UV) thermal melting; details: 15 mM KCl; 10 mM Tris pH 7.2; 8 μM compound, 2 μM DNA
[4] = test system: TBA (DNA, G4) GGTTGGTGTGGTTGG; test: CD (or UV) thermal melting; details: 5 mM KCl; 10 mM Tris pH 7.2; 8 μM compound, 2 μM DNA
[5] = test system: Tel22 (Tel22-Na+ antiparallel; Tel22-K+ hybrid) (DNA, G4) AGGGTTAGGGTTAGGGTTAGGG; test: CD (or UV) thermal melting; details: 10 mM Tris pH 7.2, 8 μM compound, 2 μM DNA
[6] = test system: F-Tel22-Na+-T (DNA, G4) AGGGTTAGGGTTAGGGTTAGGG; test: FRET melting with dsDNA competitor; details: 40 mM NaCl; 10 mM sodium cacodylate pH 7.2; 2 μM compound, 0.2 μM G4; 0-20 μM dsDNA
[7] = test system: Tel22 (Tel22-Na+ antiparallel; Tel22-K+ hybrid) (DNA, G4) AGGGTTAGGGTTAGGGTTAGGG; test: 1H NMR titration; details: up to 2.0 equiv compound
[8] = test system: c-MYC Pu22 (DNA, G4) TGAGGGTGGGTAGGGTGGGTAA; test: CD (or UV) thermal melting; details: 5 mM KCl; 10 mM Tris pH 7.2; 8 μM compound, 2 μM DNA
[9] = test system: Cy5-HIF-1α (DNA, G4) GCGCGGGGAGGGGAGAGGGGGCGGGAGCGCG; test: microscale thermophoresis (ligand-induced fluorescence quenching); details: 100 mM KCl; 50 mM Tris pH 7.2, 0.05% Tween 20; 50 nM G4
[10] = test system: dsDNA (DNA, duplex) CAATCGGATCGAATTCGATCCGATTG; test: CD (or UV) thermal melting; details: 5 mM KCl; 10 mM Tris pH 7.2; 8 μM compound, 2 μM DNA
[11] = test system: c-MYC Pu22 (DNA, G4) TGAGGGTGGGTAGGGTGGGTAA; test: 1H NMR titration; details: K+; 0-1.5 equiv compound

ΔTm [1]: 14.7 °C | ΔTm [2]: 4.2 °C | ΔTm [3]: 8.8 °C | ΔTm [4]: 6.3 °C | ΔTm ([5]; 5 mM KCl): 9.9 °C | ΔTm ([5]; 15 mM NaCl): 5.8 °C | binding [6]: yes | binding [7]: yes | ΔTm [8]: 19.2 °C | association constant [9]: 2.8 × 10^5 M^–1 | ΔTm [10]: 1.0 °C | binding [11]: yes
Structure (SMILES): NCCNCCNC(=O)c1cc(F)c(/N=N/c2c(F)cc(-c3ccncc3)cc2F)c(F)c1
